According to patent publication US9549946B2, “Materials and methods for preventing and treating microbe-mediated epithelial disorders” (priority 2002, dated 2017):

System: human intestinal epithelial cells
Test: Epithelial transport function (Na+/H+ exchange, glucose transport)
Format: cell-based
Description: The resistance of PEG-cultured human intestinal epithelial cells to the barrier-disrupting effects of P. aeruginosa, as judged by the maintenance of TEER, offers a practical approach to stabilizing tight junctional barrier function in the face of a challenge from invading pathogens. Further evidence of the therapeutic value of PEG 15-20 is that epithelial transport function (Na^+/H^+ exchange, glucose transport) is unaffected by this compound.

Substance: polyethylene glycol [PEG 15-20]
- epithelial transport function (Na+/H+ exchange, glucose transport): unaffected
